Reference: patent US20260125360A1, “HERBICIDAL IMIDAZOLE COMPOUNDS” (SYNGENTA CROP PROTECTION AG, priority 2022, published 2026)

Columns and labels:
Assay type in all cases: in vivo
Settings in all cases: 250 g/ha, evaluated after 13 days
[1] = test system: Amaranthus retoflexus (AMARE); assay: Pre-emergence herbicide glasshouse test
Procedure, shortened: (§1)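 Percentage plant damage, rated on a five-point scale (5=81-100%; 1=0-20%), is assessed 13 days after treatment. Sprays are applied at 250 g/ha unless otherwise stated, one day after sowing for pre-emergence and eight days after for post-emergence, from acetone/water (50:50) containing 0.5% Tween 20.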

[2] = test system: Amaranthus palmeri (AMAPA); assay: Pre-emergence herbicide glasshouse test
Procedure, shortened: as §1

[3] = test system: Echinochloa crus-galli (ECHCG); assay: Pre-emergence herbicide glasshouse test
Procedure, shortened: as §1

[4] = test system: Ipomoea hederacea (IPOHE); assay: Pre-emergence herbicide glasshouse test
Procedure, shortened: as §1

[5] = test system: Amaranthus retoflexus (AMARE); assay: Post-emergence herbicide glasshouse test
Procedure, shortened: as §1

[6] = test system: Amaranthus palmeri (AMAPA); assay: Post-emergence herbicide glasshouse test
Procedure, shortened: as §1

[7] = test system: Echinochloa crus-galli (ECHCG); assay: Post-emergence herbicide glasshouse test
Procedure, shortened: as §1

[8] = test system: Ipomoea hederacea (IPOHE); assay: Post-emergence herbicide glasshouse test
Procedure, shortened: as §1

Cc1cc(Cn2cc(C(F)(F)F)nc2-c2ccc(F)c(F)c2)no1 [Compound 1.192]
5 (5=81-100%): percentage damage caused to the plant, AMARE (five-point scale) [1] | percentage damage caused to the plant, AMAPA (five-point scale) [2] | percentage damage caused to the plant, ECHCG (five-point scale) [3] | percentage damage caused to the plant, IPOHE (five-point scale) [4] | percentage damage caused to the plant, AMARE (five-point scale) [5] | percentage damage caused to the plant, AMAPA (five-point scale) [6] | percentage damage caused to the plant, ECHCG (five-point scale) [7] | percentage damage caused to the plant, IPOHE (five-point scale) [8]

CCCn1nnnc1Cn1cc(C(F)(F)F)nc1-c1ccc(Cl)nc1 [Compound 1.140]
1 (1=0-20%): percentage damage caused to the plant, AMARE (five-point scale) [1] | percentage damage caused to the plant, AMAPA (five-point scale) [2] | percentage damage caused to the plant, ECHCG (five-point scale) [3] | percentage damage caused to the plant, IPOHE (five-point scale) [4] | percentage damage caused to the plant, AMARE (five-point scale) [5] | percentage damage caused to the plant, AMAPA (five-point scale) [6] | percentage damage caused to the plant, ECHCG (five-point scale) [7] | percentage damage caused to the plant, IPOHE (five-point scale) [8]

Cc1noc(Cn2cc(C(F)(F)F)nc2-c2cnc(Cl)c(F)c2)n1 [Compound 1.166]
4 (4=61-80%): percentage damage caused to the plant, AMARE (five-point scale) [5] | percentage damage caused to the plant, AMAPA (five-point scale) [6]
5 (5=81-100%): percentage damage caused to the plant, AMARE (five-point scale) [1] | percentage damage caused to the plant, AMAPA (five-point scale) [2] | percentage damage caused to the plant, IPOHE (five-point scale) [4]
2 (2=21-40%): percentage damage caused to the plant, IPOHE (five-point scale) [8]
1 (1=0-20%): percentage damage caused to the plant, ECHCG (five-point scale) [3] | percentage damage caused to the plant, ECHCG (five-point scale) [7]

Cc1nnc(Cn2cc(C(F)F)nc2-c2cnc(Cl)c(F)c2)s1 [Compound 1.016]
4 (4=61-80%): percentage damage caused to the plant, AMAPA (five-point scale) [2]
1 (1=0-20%): percentage damage caused to the plant, ECHCG (five-point scale) [3] | percentage damage caused to the plant, IPOHE (five-point scale) [4] | percentage damage caused to the plant, AMARE (five-point scale) [5] | percentage damage caused to the plant, AMAPA (five-point scale) [6] | percentage damage caused to the plant, ECHCG (five-point scale) [7] | percentage damage caused to the plant, IPOHE (five-point scale) [8]
5 (5=81-100%): percentage damage caused to the plant, AMARE (five-point scale) [1]

CC(C)c1noc(Cn2cc(C(F)(F)F)nc2-c2ccc(Cl)nc2)n1 [Compound 1.139]
1 (1=0-20%): percentage damage caused to the plant, AMARE (five-point scale) [1] | percentage damage caused to the plant, AMAPA (five-point scale) [2] | percentage damage caused to the plant, ECHCG (five-point scale) [3] | percentage damage caused to the plant, IPOHE (five-point scale) [4] | percentage damage caused to the plant, AMARE (five-point scale) [5] | percentage damage caused to the plant, AMAPA (five-point scale) [6] | percentage damage caused to the plant, ECHCG (five-point scale) [7] | percentage damage caused to the plant, IPOHE (five-point scale) [8]

Cc1cc(Cn2cc(C(F)(F)F)nc2-c2cnc(Cl)c(F)c2)no1 [Compound 1.025]
5 (5=81-100%): percentage damage caused to the plant, AMARE (five-point scale) [1] | percentage damage caused to the plant, AMAPA (five-point scale) [2] | percentage damage caused to the plant, AMARE (five-point scale) [5]
4 (4=61-80%): percentage damage caused to the plant, ECHCG (five-point scale) [3] | percentage damage caused to the plant, IPOHE (five-point scale) [4] | percentage damage caused to the plant, AMAPA (five-point scale) [6] | percentage damage caused to the plant, ECHCG (five-point scale) [7]
2 (2=21-40%): percentage damage caused to the plant, IPOHE (five-point scale) [8]

Cc1cc(Cn2cc(C(F)(F)F)nc2-c2cnc(Cl)c(F)c2)ns1 [Compound 1.027]
5 (5=81-100%): percentage damage caused to the plant, AMARE (five-point scale) [1] | percentage damage caused to the plant, AMAPA (five-point scale) [2]
3 (3=41-60%): percentage damage caused to the plant, ECHCG (five-point scale) [3]
4 (4=61-80%): percentage damage caused to the plant, IPOHE (five-point scale) [4] | percentage damage caused to the plant, AMARE (five-point scale) [5] | percentage damage caused to the plant, AMAPA (five-point scale) [6] | percentage damage caused to the plant, ECHCG (five-point scale) [7] | percentage damage caused to the plant, IPOHE (five-point scale) [8]

Fc1ncc(-c2nc(C(F)(F)F)cn2Cc2ccc(Cl)s2)cc1Cl [Compound 1.152]
2 (2=21-40%): percentage damage caused to the plant, IPOHE (five-point scale) [8]
1 (1=0-20%): percentage damage caused to the plant, IPOHE (five-point scale) [4] | percentage damage caused to the plant, ECHCG (five-point scale) [7]
3 (3=41-60%): percentage damage caused to the plant, ECHCG (five-point scale) [3]
5 (5=81-100%): percentage damage caused to the plant, AMARE (five-point scale) [1] | percentage damage caused to the plant, AMAPA (five-point scale) [2] | percentage damage caused to the plant, AMARE (five-point scale) [5] | percentage damage caused to the plant, AMAPA (five-point scale) [6]

Cn1cnc(Cn2cc(C(F)(F)F)nc2-c2ccc(F)c(F)c2)n1 [Compound 1.020]
4 (4=61-80%): percentage damage caused to the plant, IPOHE (five-point scale) [8]
5 (5=81-100%): percentage damage caused to the plant, AMARE (five-point scale) [1] | percentage damage caused to the plant, AMAPA (five-point scale) [2] | percentage damage caused to the plant, ECHCG (five-point scale) [3] | percentage damage caused to the plant, IPOHE (five-point scale) [4] | percentage damage caused to the plant, AMARE (five-point scale) [5] | percentage damage caused to the plant, AMAPA (five-point scale) [6] | percentage damage caused to the plant, ECHCG (five-point scale) [7]

Cc1cc(Cn2cc(C(F)(F)F)nc2-c2cnc(F)c(Cl)c2)no1 [Compound 1.163]
5 (5=81-100%): percentage damage caused to the plant, AMARE (five-point scale) [1] | percentage damage caused to the plant, AMAPA (five-point scale) [2] | percentage damage caused to the plant, ECHCG (five-point scale) [3] | percentage damage caused to the plant, IPOHE (five-point scale) [4] | percentage damage caused to the plant, AMARE (five-point scale) [5] | percentage damage caused to the plant, AMAPA (five-point scale) [6] | percentage damage caused to the plant, ECHCG (five-point scale) [7]
4 (4=61-80%): percentage damage caused to the plant, IPOHE (five-point scale) [8]
